Source: PubChem BioAssay AID330 (DTP/NCI, 2004)
“And” between values parts separate entries of the source, which are not always exact repeats. Identical values can stand only once. Inconclusive results and toxic doses are left out. Rule for the calls: active = survival T/C of 150% or more; inactive = T/C below 125% in these data.

Tested on: P388 leukemia ip, CD2F1 mice, survival T/C
Experiment: NCI In Vivo Anticancer Drug Screen. Data for tumor model P388 Leukemia (intraperitoneal) in CD2F1 (CDF1) mice
Conditions: endpoint: median survival time, higher = longer survival
Outline: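 Mice carrying the transplanted tumor received test compound or vehicle. Survival was recorded in each group, and the value is the treated-group measurement divided by that of the vehicle-treated control group.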

[1] = dose: 6.25 mg/kg/injection, schedule: Q01DX009 (ip), vehicle: saline
[2] = dose: 12.5 mg/kg/injection, schedule: Q01DX009 (ip), vehicle: saline
[3] = dose: 50.0 mg/kg/injection, schedule: Q01DX005 (ip), vehicle: distilled water + alcohol
[4] = dose: 100.0 mg/kg/injection, schedule: Q01DX005 (ip), vehicle: distilled water + alcohol
[5] = dose: 200.0 mg/kg/injection, schedule: Q01DX005 (ip), vehicle: distilled water + alcohol
[6] = dose: 50.0 mg/kg/injection, schedule: Q01DX009 (ip), vehicle: saline with Tween-80
[7] = dose: 100.0 mg/kg/injection, schedule: Q01DX009 (ip), vehicle: saline with Tween-80
[8] = dose: 200.0 mg/kg/injection, schedule: Q01DX009 (ip), vehicle: saline with Tween-80
[9] = dose: 50.0 mg/kg/injection, schedule: Q01DX005 (ip), vehicle: saline with Tween-80
[10] = dose: 100.0 mg/kg/injection, schedule: Q01DX005 (ip), vehicle: saline with Tween-80
[11] = dose: 200.0 mg/kg/injection, schedule: Q01DX005 (ip), vehicle: saline with Tween-80
[12] = dose: 60.0 mg/kg/injection, schedule: Q01DX005 (ip), vehicle: saline with Tween-80
[13] = dose: 120.0 mg/kg/injection, schedule: Q01DX005 (ip), vehicle: saline with Tween-80
[14] = dose: 240.0 mg/kg/injection, schedule: Q01DX005 (ip), vehicle: saline with Tween-80

Measured: T/C

CCC[CH2][Sn]([CH2]CCC)([CH2]CCC)[CH2]S(=O)(=O)O
inactive: [1] 108 % of control | [2] 119 % of control | dose: 100.0 mg/kg/injection, schedule: Q01DX009 (ip), vehicle: saline 116 % of control

Cc1cc(NC(=S)SCc2ccc(F)cc2)c([N+](=O)[O-])cc1C
inactive: dose: 50.0 mg/kg/injection, schedule: Q01DX009 (ip), vehicle: suspension in saline 93 % of control | dose: 100.0 mg/kg/injection, schedule: Q01DX009 (ip), vehicle: suspension in saline 90 % of control | dose: 200.0 mg/kg/injection, schedule: Q01DX009 (ip), vehicle: suspension in saline 98 % of control

COc1ccc(C=C2C=C(C(C)(C)C)C(=O)C(C(C)(C)C)=C2)cc1
inactive: [3] 108 % of control | [4] 96 % of control | [5] 108 % of control

O=CNCO
inactive: dose: 250.0 mg/kg/injection, schedule: Q01DX005 (ip), vehicle: water 100 % of control | dose: 500.0 mg/kg/injection, schedule: Q01DX005 (ip), vehicle: water 101 % of control and 103 % of control | dose: 1000.0 mg/kg/injection, schedule: Q01DX005 (ip), vehicle: water 108 % of control and 110 % of control | dose: 2000.0 mg/kg/injection, schedule: Q01DX005 (ip), vehicle: water 114 % of control

CC(CNCCN)C[Si](C)(C)C (centres undefined)
inactive: [1] 95 % of control | [2] 87 % of control | dose: 25.0 mg/kg/injection, schedule: Q01DX009 (ip), vehicle: saline 95 % of control

NC(=S)/N=C(/N)NC(=O)c1ccccc1
inactive: dose: 25.0 mg/kg/injection, schedule: Q01DX009 (ip), vehicle: saline with Tween-80 87 % of control | [6] 87 % of control | [7] 86 % of control | [8] 110 % of control

O=C1c2ccccc2C(=O)N1CC(O)COCc1ccccc1 (centres undefined)
inactive: [9] 102 % of control | [10] 98 % of control | [11] 100 % of control

O=C(CNC(=O)Nc1ccc(Cl)c(Cl)c1)N/N=C/c1cccc(F)c1
inactive: dose: 15.0 mg/kg/injection, schedule: Q01DX005 (ip), vehicle: saline with Tween-80 89 % of control | dose: 30.0 mg/kg/injection, schedule: Q01DX005 (ip), vehicle: saline with Tween-80 91 % of control | [12] 89 % of control

C=C(C)C(O)CCCO[Si](c1ccccc1)(c1ccccc1)C(C)(C)C (centres undefined)
inactive: [12] 94 % of control | [13] 95 % of control | [14] 97 % of control

CC1COC(C)(C)P(c2ccccc2)C1 (centres undefined)
inactive: [12] 102 % of control | [13] 105 % of control | [14] 106 % of control

O=C(O)C(Cc1ccccc1F)NC(=O)C(F)(F)F (centres undefined)
inactive: [6] 92 % of control | [7] 94 % of control | [8] 100 % of control

CC1CCOBO1 (centres undefined)
inactive: dose: 100.0 mg/kg/injection, schedule: Q04DX002 (ip), vehicle: Klucel (hydroxypropylcellulose) (HPC) 98 % of control | dose: 200.0 mg/kg/injection, schedule: Q04DX002 (ip), vehicle: Klucel (hydroxypropylcellulose) (HPC) 101 % of control | dose: 400.0 mg/kg/injection, schedule: Q04DX002 (ip), vehicle: Klucel (hydroxypropylcellulose) (HPC) 98 % of control

Nc1nc(-c2ccc(Cl)c(Cl)c2)cc(-c2cc(-c3ccc(Cl)c(Cl)c3)nc(N)n2)n1
inactive: [12] 96 % of control | [13] 95 % of control | [14] 95 % of control

NCCC(=O)NCCSSCCNC(=O)CCN
inactive: dose: 100.0 mg/kg/injection, schedule: Q04DX003 (ip), vehicle: saline 112 % of control | dose: 200.0 mg/kg/injection, schedule: Q04DX003 (ip), vehicle: saline 111 % of control

Cc1ccccc1C(=O)c1cnc(C)n1Cc1ccccc1
inactive: [12] 96 % of control | [13] 98 % of control | [14] 98 % of control

COc1ccc2cc1Oc1ccc(cc1)CC1c3cc(OC)c(cc3CCN1C)Oc1c(O)c(OC)cc3c1C(C2)N(C)CC3 (centres undefined)
inactive: dose: 3.88 mg/kg/injection, schedule: Q01DX005 (ip), vehicle: Klucel (hydroxypropylcellulose) (HPC) 103 % of control | dose: 7.75 mg/kg/injection, schedule: Q01DX005 (ip), vehicle: Klucel (hydroxypropylcellulose) (HPC) 95 % of control | dose: 15.5 mg/kg/injection, schedule: Q01DX005 (ip), vehicle: Klucel (hydroxypropylcellulose) (HPC) 95 % of control | dose: 31.0 mg/kg/injection, schedule: Q01DX005 (ip), vehicle: Klucel (hydroxypropylcellulose) (HPC) 95 % of control

C=C1CCN(c2ccc(N3CCC(=C)C3=O)cc2)C1=O
inactive: dose: 3.12 mg/kg/injection, schedule: Q01DX009 (ip), vehicle: saline + alcohol 88 % of control | dose: 6.25 mg/kg/injection, schedule: Q01DX009 (ip), vehicle: saline + alcohol 100 % of control | dose: 25.0 mg/kg/injection, schedule: Q01DX009 (ip), vehicle: saline + alcohol 88 % of control | dose: 50.0 mg/kg/injection, schedule: Q01DX009 (ip), vehicle: saline + alcohol 88 % of control

O=C(Nc1ccc(C(=O)O)cc1)Nc1cc(C(F)(F)F)ccc1Cl
inactive: [12] 105 % of control | [13] 105 % of control | [14] 105 % of control

COC(=O)C(Br)c1cccc(OC)c1 (centres undefined)
inactive: dose: 132.0 mg/kg/injection, schedule: Q04DX003 (ip), vehicle: saline with Tween-80 100 % of control | dose: 178.0 mg/kg/injection, schedule: Q01DX009 (ip), vehicle: saline with Tween-80 100 % of control | dose: 200.0 mg/kg/injection, schedule: Q04DX003 (ip), vehicle: saline with Tween-80 100 % of control | dose: 266.0 mg/kg/injection, schedule: Q01DX009 (ip), vehicle: saline with Tween-80 100 % of control | dose: 300.0 mg/kg/injection, schedule: Q04DX003 (ip), vehicle: saline with Tween-80 100 % of control | dose: 400.0 mg/kg/injection, schedule: Q01DX009 (ip), vehicle: saline with Tween-80 100 % of control

COc1cc(Cc2nnc(Nc3ccccc3)[nH]c2=O)cc(OC)c1OC
inactive: dose: 100.0 mg/kg/injection, schedule: Q01DX001 (ip), vehicle: Klucel (hydroxypropylcellulose) (HPC) 98 % of control | dose: 200.0 mg/kg/injection, schedule: Q01DX001 (ip), vehicle: Klucel (hydroxypropylcellulose) (HPC) 94 % of control | dose: 400.0 mg/kg/injection, schedule: Q01DX001 (ip), vehicle: Klucel (hydroxypropylcellulose) (HPC) 98 % of control

Nc1ncnc2c1ncn2C1OC(COC(c2ccccc2)(c2ccccc2)c2ccccc2)C(O)C1O (centres undefined)
inactive: [9] 100 % of control | [10] 95 % of control | [11] 90 % of control

[N-]=[N+]=Nc1c2c(nc3ccccc13)CCCC2
inactive: [12] 103 % of control | [13] 105 % of control

Nc1ncnc2c1ccn2CC(O)COP(=O)(O)O (centres undefined)
inactive: [3] 104 % of control | [4] 100 % of control | [5] 100 % of control
